Data from ChEMBL document CHEMBL5505979, “Novel aminothiazoximone-corbelled ethoxycarbonylpyrimidones with antibiofilm activity to conquer Gram-negative bacteria through potential multitargeting effects” (Eur J Med Chem, 2024).
In brackets after ≈: the same amount, converted by molar mass. Activity calls are given as the source filed them. The calls are words filed in the database; no cut-off is given here.

Key:
Acinetobacter baumannii [1] = assay: Induction of intracellular ROS accumulation in Acinetobacter baumannii assessed as fluorescence intensity at 1/4 to 2 times of MIC by DCFH-DA staining based assay; format: functional, organism-based
Acinetobacter baumannii [2] = assay: Anti-bacterial activity against Acinetobacter baumannii assessed as growth inhibition by measuring optical density measured at 1/4 time of MIC in presence of 1/8 times of MIC of norfloxacin by Checkerboard assay (reference value: 0.152); format: functional
Acinetobacter baumannii [3] = assay: Anti-bacterial activity against Acinetobacter baumannii assessed as growth inhibition by measuring optical density measured at 2 time of MIC in presence of 1 times of MIC of norfloxacin by Checkerboard assay (reference value: 0.155); format: functional
Escherichia coli = assay: Anti-bacterial activity against Escherichia coli ATCC 25922 assessed as growth inhibition by measuring optical density measured at 2 time of MIC in presence of 1 times of MIC of norfloxacin by Checkerboard assay (reference value: 0.128); format: functional
Candida albicans = assay: Anti-fungal activity against Candida albicans 90023 assessed as inhibition of fungal growth; format: functional
Staphylococcus aureus = assay: Anti-bacterial activity against Staphylococcus aureus ATCC 1708 assessed as inhibition of bacterial growth; format: functional; settings: Staphylococcus aureus, ATCC 1708; read-out: MIC

For `CCCCc1nc(Cl)c(C2NC(=O)NC(CN3CCN(C(=O)/C(=N/OC)c4csc(N)n4)CC3)=C2C(=O)OCC)[nH]1` (stereo unspecified), the Activity (Acinetobacter baumannii [1]) was “Active”, the OD (Acinetobacter baumannii [2]) was 0.127 and the OD (Acinetobacter baumannii [3]) was 0.052. It also gave an OD (Escherichia coli) of 0.052, an MIC (Candida albicans) of 53 µM (≈ 32.2 µg/mL) and an MIC (Staphylococcus aureus) of 13 µM (≈ 7.91 µg/mL).
